Experimental findings from patent US8722727B2, “Antifungal agents” (Seynix, Inc., priority 2008, dated 2014) are described below.

T1 sequence (O13428 1-1897): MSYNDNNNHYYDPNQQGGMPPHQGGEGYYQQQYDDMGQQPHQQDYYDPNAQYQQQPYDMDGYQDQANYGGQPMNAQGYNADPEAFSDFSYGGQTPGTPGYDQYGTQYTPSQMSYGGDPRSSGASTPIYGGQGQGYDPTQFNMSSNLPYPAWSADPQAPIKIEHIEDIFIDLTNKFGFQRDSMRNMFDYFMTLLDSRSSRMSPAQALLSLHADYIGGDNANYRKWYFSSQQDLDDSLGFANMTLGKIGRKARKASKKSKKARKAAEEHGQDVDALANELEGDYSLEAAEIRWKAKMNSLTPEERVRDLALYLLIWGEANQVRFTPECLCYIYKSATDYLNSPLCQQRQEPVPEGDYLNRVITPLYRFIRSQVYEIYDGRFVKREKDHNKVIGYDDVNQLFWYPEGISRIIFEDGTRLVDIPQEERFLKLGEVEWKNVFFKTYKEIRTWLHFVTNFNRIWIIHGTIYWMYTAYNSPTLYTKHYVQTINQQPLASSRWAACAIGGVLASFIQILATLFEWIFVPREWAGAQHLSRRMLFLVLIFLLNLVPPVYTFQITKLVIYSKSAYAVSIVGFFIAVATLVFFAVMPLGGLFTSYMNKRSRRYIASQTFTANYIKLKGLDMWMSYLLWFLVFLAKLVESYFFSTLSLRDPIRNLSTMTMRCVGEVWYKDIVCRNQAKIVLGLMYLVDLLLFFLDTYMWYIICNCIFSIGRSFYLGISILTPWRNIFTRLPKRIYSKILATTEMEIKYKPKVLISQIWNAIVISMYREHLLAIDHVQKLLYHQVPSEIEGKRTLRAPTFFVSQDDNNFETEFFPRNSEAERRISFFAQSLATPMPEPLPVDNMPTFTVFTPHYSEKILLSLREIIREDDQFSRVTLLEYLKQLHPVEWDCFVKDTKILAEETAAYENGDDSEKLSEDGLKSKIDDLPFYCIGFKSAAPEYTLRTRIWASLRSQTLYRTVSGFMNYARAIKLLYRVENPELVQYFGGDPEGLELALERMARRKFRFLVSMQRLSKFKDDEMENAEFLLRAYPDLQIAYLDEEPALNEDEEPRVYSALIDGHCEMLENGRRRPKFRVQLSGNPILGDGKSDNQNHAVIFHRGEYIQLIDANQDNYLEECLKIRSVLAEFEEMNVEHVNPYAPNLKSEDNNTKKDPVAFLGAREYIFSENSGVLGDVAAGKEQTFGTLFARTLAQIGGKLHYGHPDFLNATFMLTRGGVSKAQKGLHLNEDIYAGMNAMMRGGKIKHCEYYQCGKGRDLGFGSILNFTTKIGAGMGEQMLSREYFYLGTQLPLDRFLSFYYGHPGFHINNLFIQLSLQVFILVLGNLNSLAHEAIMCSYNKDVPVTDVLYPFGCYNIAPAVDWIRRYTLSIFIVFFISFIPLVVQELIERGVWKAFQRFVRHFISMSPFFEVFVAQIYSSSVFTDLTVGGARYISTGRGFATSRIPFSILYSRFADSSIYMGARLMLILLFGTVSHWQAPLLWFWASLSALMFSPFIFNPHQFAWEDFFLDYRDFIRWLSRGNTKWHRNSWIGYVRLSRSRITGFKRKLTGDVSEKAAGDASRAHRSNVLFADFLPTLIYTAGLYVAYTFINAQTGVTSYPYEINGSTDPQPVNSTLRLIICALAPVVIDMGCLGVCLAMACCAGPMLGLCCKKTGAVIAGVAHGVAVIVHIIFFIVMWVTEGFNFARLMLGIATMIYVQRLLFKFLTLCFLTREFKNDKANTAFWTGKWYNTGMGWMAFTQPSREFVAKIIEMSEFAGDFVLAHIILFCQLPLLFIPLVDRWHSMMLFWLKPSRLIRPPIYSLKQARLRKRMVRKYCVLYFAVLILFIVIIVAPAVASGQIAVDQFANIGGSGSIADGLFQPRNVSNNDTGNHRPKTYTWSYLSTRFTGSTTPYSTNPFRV
T1 sequence (O42825 1-195 partner limits assumed): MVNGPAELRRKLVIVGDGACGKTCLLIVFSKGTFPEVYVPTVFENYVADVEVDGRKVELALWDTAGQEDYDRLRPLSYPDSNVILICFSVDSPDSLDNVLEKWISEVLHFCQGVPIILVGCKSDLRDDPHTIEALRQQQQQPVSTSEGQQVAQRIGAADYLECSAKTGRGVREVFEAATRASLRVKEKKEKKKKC

The assay has as its target T1, glucan synthase (GS) (Candida albicans, UniProt O13428).
T1 construct: Extraction of GS activity from membranes was performed at a protein concentration of 5 mg/mL in extraction buffer; endogenous in cells; host or cells: Candida albicans MY1055 (membrane fraction, detergent extraction, product entrapment)
In words: Glucan synthase inhibition (polymerization assay, 96-well). It is filed as biochemical. To be noted: glucan synthase prepared from Candida albicans MY1055; 60 min incubation at 22° C.; read-out: Candida Albicans GS IC50 (ng/mL) (converted). On the procedure:
The in vitro evaluation of glucan synthase inhibitory activity of compounds was measured in a polymerization assay in 96-well format. Each well contained 100 μL of ^3H-UDPG at 0.5 mM (6000 to 8000 dpm/nmol), 50 mM HEPES pH 7.5 (Sigma), 10% w/v glycerol (Sigma), 1.5 mg/mL bovine serum albumin (Sigma A 9647. Lot 44H0190), 25 mM KF (Fisher), 1 mM EDTA (Gibco ULTRAPURE), 25 μM GTP-γ-S, enzyme sufficient to give 3 to 6 nmoles incorporation during the 60 min incubation at 22° C., and test compound added from wells in 3-fold serial dilutions in 100% DMSO (1 μL/well). The reaction was stopped by the addition of 100 μL of 20% trichloroacetic acid. Plates were chilled for a minimum of 10 min, and precipitated glucan collected by filtration on GF/C plates (Packard UNIFILTER®-96), washed with 5 cycles of water (about 1 mL/well each cycle) using a Packard FILTERMATE HARVESTER. 40 μL/well scintillation fluid (Packard ULTIMA GOLD TM-XR) was added and the sealed plates counted in a WALLAC BETA counter in top-counting mode at an efficiency of approximately 40%.
Stock solutions were stored at 10 mg/mL in DMSO at −20° C. For each new enzyme preparation, the initial titration performed started at 1 mg/mL, which was prepared by making a 10-fold dilution in DMSO (5 μL to 50 μL). 40 μL of this stock was placed in column 12 of a round-bottomed 96-well microtiter plate. 40 μL DMSO was added to columns 1 to 11 in the same row and ten 3-fold serial dilutions performed, by transferring 20 μL from column 12 to column 11 etc., with 4 mixings before each transfer. No test compound was transferred to from column 2 to column 1. Duplicate aliquots of 1 μL of all 12 dilutions were then transferred to the side walls of a 96-well Bioblock 1.1 mL plate (Fisher brand) to create two rows. Graphs of the primary data were created in PRISM software (the average of two determinations) using PRISM's curve fitting program (sigmoidal dose response non-linear regression). The amount of compound required to inhibit glucan synthase activity by 50% in this assay (IC50-ng/mL) was calculated.
Routine analysis was performed with glucan synthase (GS) prepared from Candida albicans MY1055 by the following procedure: MY1055 was grown in 10 liters YPD medium (10 g yeast extract, 20 g tryptone, 20 g glucose per liter) with vigorous shaking at 30° C., to early stationary phase. Cells were harvested by centrifugation, the pellet was washed and frozen at −70° C. until breakage. Thawed pellets were shaken with an equal volume of breakage buffer (50 mM HEPES pH 7.4, 10% glycerol, 1 mM EDTA, 1 mM PMSF, 1 mM DTT) and 4 times their weight of 0.5 mm acid washed glass beads for 2 hours at 4° C. Extent of breakage was assessed visually at 40× magnification. After low speed centrifugation to remove cell debris, the supernatant was centrifuged at 100,000×g for 60 min. to separate membranes plus ribosomes from cytoplasmic components. Membranes were further washed two additional times with breakage buffer using the same centrifugation conditions and finally suspended in breakage buffer at 25 to 30 mg/mL protein (Biorad) for storage at −70° C. Extraction of GS activity from membranes was performed at a protein concentration of 5 mg/mL in extraction buffer (50 mM NaPO4 pH 7.5, 0.1 M KCl, 0.1M Na citrate, 20% glycerol, 5 μM GTP-γ-S, 1 mM DTT, 1 mM PMSF, 3 μg/mL pepstatin) plus 0.25% W1 by gentle mixing at 4° C. for 60 min, followed by centrifugation at 100,000×g for 60 min. After centrifugation, clear supernatant was removed from a pellet consisting of a hard layer usually with small amounts of gelatinous unextracted membranes above it.
Trapping was initiated immediately by 5-fold dilution in trapping buffer (50 mM HEPES pH 7.5, 10 mM KF, 1 mM EDTA, 2 mg/mL BSA) plus 2.5 mM UDPG and 10 μM GTP-γ-S. After incubation at 25° C. for 60 to 90 minutes, glucan was harvested by low speed centrifugation (3,000×g, 10 min). […]
With `CC(C)[C@@H](C)[C@@]1(C)CC[C@]2(C)[C@H]3CC[C@@H]4[C@@]5(COC[C@@]4(C)[C@@H](OC[C@](C)(N)C(C)C)[C@H](n4nnc(CO)n4)C5)C3=CC[C@@]2(C)[C@@H]1C(=O)O` [Example 43B, (1S,4aR,6aS,7R,8R,10aR,10bR,12aR,14R,15R)-15-[[(2R)-2-amino-2,3-dimethylbutyl]oxy]-8-[(1R)-1,2-dimethylpropyl]-14-[5-(hydroxymethyl)-2H-tetrazol-2-yl]-1,6,6a,7,8,9,10,10a,10b,11,12,12a-dodecahydro-1,6a,8,10a-tetramethyl-4H-1,4a-propano-2H-phenanthro[1,2-c]pyran-7-carboxylic acid], the IC50 is 85.1 nM.
Consider `CC(C)C(C(C)O[C@H]1[C@H](n2nnc(N)n2)C[C@@]23COC[C@]1(C)[C@@H]2CC[C@H]1C3=CC[C@@]2(C)[C@H](C(=O)O)[C@@](C)([C@H](C)C(C)C)CC[C@]12C)N(C)C` (stereo partly drawn) [Example 49, (1S,4aR,6aS,7R,8R,10aR,10bR,12aR,14R,15R)-14-(5-amino-2H-tetrazol-2-yl)-15-[2-(dimethylamino)-1,3-dimethylbutoxy]-8-[(1R)-1,2-dimethylpropyl]-1,6,6a,7,8,9,10,10a,10b,11,12,12a-dodecahydro-1,6a,8,10a-tetramethyl-4H-1,4a-propano-2H-phenanthro[1,2-c]pyran-7-carboxylic acid], for which the IC50 was 26.4 nM.
Consider `CC(C)[C@@H](C)[C@@]1(C)CC[C@]2(C)[C@H]3CC[C@@H]4[C@@]5(COC[C@@]4(C)[C@@H](OC[C@@](C)(N)C(C)C)[C@H](n4nnc(N)n4)C5)C3=CC[C@@]2(C)[C@@H]1C(N)=O` [Example 51, (1S,4aR,6aS,7R,8R,10aR,10bR,12aR,14R,15R)-15-[[(2S)-2-amino-2,3-dimethylbutyl]oxy]-14-(5-amino-2H-tetrazol-2-yl)-8-[(1 R)-1,2-dimethylpropyl]-1,6,6a,7,8,9,10,10a,10b,11,12,12a-dodecahydro-1,6a,8,10a-tetramethyl-4H-1,4a-propano-2H-phenanthro[1,2-c]pyran-7-carboxamide], for which the IC50 is 3.06 nM.
Consider `CN[C@@](C)(CO[C@H]1[C@H](n2nnc(N)n2)C[C@@]23COC[C@]1(C)[C@@H]2CC[C@H]1C3=CC[C@@]2(C)[C@H](C(=O)O)[C@@](C)([C@H](C)C(C)C)CC[C@]12C)C(C)C` [Example 52, (1S,4aR,6aS,7R,8R,10aR,10bR,12aR,14R,15R)-14-(5-amino-2H-tetrazol-2-yl)-15-[[(2R)-2,3-dimethyl-2-(methylamino)butyl]oxy]-8-[(1R)-1,2-dimethylpropyl]-1,6,6a,7,8,9,10,10a,10b,11,12,12a-dodecahydro-1,6a,8,10a-tetramethyl-4H-1,4a-propano-2H-phenanthro[1,2-c]pyran-7-carboxylic acid], for which the IC50 is 2.99 nM.
Take `CCCN[C@@](C)(CO[C@H]1[C@H](n2nnc(N)n2)C[C@@]23COC[C@]1(C)[C@@H]2CC[C@H]1C3=CC[C@@]2(C)[C@H](C(=O)O)[C@@](C)([C@H](C)C(C)C)CC[C@]12C)C(C)C` [Example 55, (1S,4aR,6aS,7R,8R,10aR,10bR,12aR,14R,15R)-14-(5-amino-2H-tetrazol-2-yl)-15-[[(2R)-2,3-dimethyl-2-(propylamino)butyl]oxy]-8-[(1R)-1,2-dimethylpropyl]-1,6,6a,7,8,9,10,10a,10b,11,12,12a-dodecahydro-1,6a,8,10a-tetramethyl-4H-1,4a-propano-2H-phenanthro[1,2-c]pyran-7-carboxylic acid]: the IC50 was 11.5 nM.
As to `CC(C)N[C@@](C)(CO[C@H]1[C@H](n2nnc(N)n2)C[C@@]23COC[C@]1(C)[C@@H]2CC[C@H]1C3=CC[C@@]2(C)[C@H](C(=O)O)[C@@](C)([C@H](C)C(C)C)CC[C@]12C)C(C)C` [Example 57, (1S,4aR,6aS,7R,8R,10aR,10bR,12aR,14R,15R)-14-(5-amino-2H-tetrazol-2-yl)-15-[[(2R)-2,3-dimethyl-2-[(1-methylethyl)amino]butyl]oxy]-8-[(1R)-1,2-dimethylpropyl]-1,6,6a,7,8,9,10,10a,10b,11,12,12a-dodecahydro-1,6a,8,10a-tetramethyl-4H-1,4a-propano-2H-phenanthro[1,2-c]pyran-7-carboxylic acid], the IC50 was 8.61 nM.
Take `CC(C)[C@@H](C)[C@@]1(C)CC[C@]2(C)[C@H]3CC[C@@H]4[C@@]5(COC[C@@]4(C)[C@@H](OC[C@](C)(NCc4ccccc4)C(C)C)[C@H](n4nnc(N)n4)C5)C3=CC[C@@]2(C)[C@@H]1C(=O)O` [Example 61, (1S,4aR,6aS,7R,8R,10aR,10bR,12aR,14R,15R)-14-(5-amino-2H-tetrazol-2-yl)-15-[[(2R)-2,3-dimethyl-2-[(phenylmethyl)amino]butyl]oxy]-8-[(1R)-1,2-dimethylpropyl]-1,6,6a,7,8,9,10,10a,10b,11,12,12a-dodecahydro-1,6a,8,10a-tetramethyl-4H-1,4a-propano-2H-phenanthro[1,2-c]pyran-7-carboxylic acid]: the IC50 is 10.7 nM.
To `CCCN(C)[C@](C)(CO[C@H]1[C@H](n2nnc(N)n2)C[C@@]23COC[C@]1(C)[C@@H]2CC[C@H]1C3=CC[C@@]2(C)[C@H](C(=O)O)[C@@](C)([C@H](C)C(C)C)CC[C@]12C)C(C)C` [Example 69, (1S,4aR,6aS,7R,8R,10aR,10bR,12aR,14R,15R)-14-(5-amino-2H-tetrazol-2-yl)-15-[[(2S)-2,3-dimethyl-2-(methylpropylamino)butyl]oxy]-8-[(1R)-1,2-dimethylpropyl]-1,6,6a,7,8,9,10,10a,10b,11,12,12a-dodecahydro-1,6a,8,10a-tetramethyl-4H-1,4a-propano-2H-phenanthro[1,2-c]pyran-7-carboxylic acid] belongs 28.1 nM.
As for `CCCCN[C@](C)(CO[C@H]1[C@H](n2nnc(N)n2)C[C@@]23COC[C@]1(C)[C@@H]2CC[C@H]1C3=CC[C@@]2(C)[C@H](C(=O)O)[C@@](C)([C@H](C)C(C)C)CC[C@]12C)C(C)C` [Example 71, (1S,4aR,6aS,7R,8R,10aR,10bR,12aR,14R,15R)-14-(5-amino-2H-tetrazol-2-yl)-15-[[(2S)-2-(butylamino)-2,3-dimethylbutyl]oxy]-8-[(1R)-1,2-dimethylpropyl]-1,6,6a,7,8,9,10,10a,10b,11,12,12a-dodecahydro-1,6a,8,10a-tetramethyl-4H-1,4a-propano-2H-phenanthro[1,2-c]pyran-7-carboxylic acid], the figure is 12.7 nM; as for `CCC[C@H](CO[C@H]1[C@H](n2nnc(N)n2)C[C@@]23COC[C@]1(C)[C@@H]2CC[C@H]1C3=CC[C@@]2(C)[C@H](C(=O)O)[C@@](C)([C@H](C)C(C)C)CC[C@]12C)N(C)C` [Example 77, (1S,4aR,6aS,7R,8R,10aR,10bR,12aR,14R,15R)-14-(5-amino-2H-tetrazol-2-yl)-15-[[(2R)-2-(dimethylamino)pentyl]oxy]-8-[(1R)-1,2-dimethylpropyl]-1,6,6a,7,8,9,10,10a,10b,11,12,12a-dodecahydro-1,6a,8,10a-tetramethyl-4H-1,4a-propano-2H-phenanthro[1,2-c]pyran-7-carboxylic acid], 20.9 nM.
